From EP0485217A2, “Hydantoin derivatives, and their use in preventing and treating diabetic complications and circulatory organ diseases” (priority 1990, dated 1992)
Where two headings read alike, the source gives them in different places. Marks after values point to notes of the source that are not given here.

How the values were obtained:
platelet aggregation [1] = experiment: Ex-vivo inhibition of platelet aggregation after intravenous administration; format: in vivo, rat; conditions: inhibition relative to control, blood 5 minutes after dosing; for Collagen (10 μM): inducer collagen
Protocol: The thus treated blood was centrifuged at 1500 rpm for 5 minutes to obtain a supernatant fluid in the form of PRP. The residues were then again centrifuged at 4°C and 3000 rpm for 10 minutes to obtain a supernatant fluid in the form of PPP. […] of PRP were put in a PRP cuvette having a stirrer bar with the transmittance set at 0%, while 300 µl of PPP were put in a PPP cuvette with the transmittance set at 100%. After 1-minute preincubation, 20 µl of an aggregation inducer (collagen or ADP) were introduced.
A control group, to which dimethylacetamide and tartaric acid in a ratio of 2/3 were given in a quantity of 1 ml/kg, was treated as with the test group. Upon the addition of the aggregation inducer, a maximum transmittance change was read to find a platelet aggregation change in %.

platelet aggregation [2] = experiment: In-vitro inhibition of platelet aggregation in platelet rich plasma; format: cell-based, rat
Protocol: Then, the residues were centrifuged to obtain a supernatant fluid in the form of platelet poor plasma (PPP for short). For measurement, an amount of PRP collected from two to four animals was pooled. The platelet aggregation test was carried out with NBS HEMA TRACER (Model PAT-60 made by Niko Bioscience Co., Ltd.). […] After 1-minute preincubation, 3 µl of the test compound were added and, one minute later, 30 µl of an aggregation inducer (collagen or ADP) were introduced. Added to a control group was the test compound together with 3 µl of dimethyl sulfoxide. Upon the addition of the aggregation inducer, a maximum transmittance change was read to find a platelet aggregation change in %.

right atrium = experiment: Extracted heart, right atrium sample (heart rate); parameters: species or system Hartley guinea pigs; conditions: Cavia porcellus, read-out: Heart Rates
Source text: (§1) Stunned by receving a blow on the heads, Hartley guinea pigs (weighing 300-400 g) were fixed on the back regions to extract their hearts. […] This vessel was previously filled with a Krebs-Henseleit solution and the above gaseous mixture continued to be supplied thereto during preparing the sample.
(§2) In order to prepare the sample, the right and left atria were cut out of the ventricular muscule along the atriventricular sulcus from the center of both the right and left auricles.
The contraction of the sample was recorded on a recorder through an FD pickup simultaneously with counting and recording the beat with an instantaneous cardiograph unit.

left atrium = experiment: Extracted heart, left atrium sample (systole force, electrically stimulated); parameters: species or system Hartley guinea pigs; conditions: Cavia porcellus, read-out: Systole Forces
Source text: as §1, §2
While a platinum bipolar electrode attached to the above-mentioned micro wire clamp was in contact with the atrium, stimuli were given to it by 1-Hz, 2-msec. and 10-V rectangular waves derived through an electrical stimulator and an isolator to record the movement of said atrium with an FD pickup connected with it through silk thread.

[3] = test system: Extracted Guinea Pigs' Aortae; experiment: Relaxation of extracted thoracic aorta contracted by KCl or NE; parameters: species or system Hartley guinea pigs; conditions: Cavia porcellus
Source text: Stunned by receiving a blow on the head, Hartley guinea pigs (weighing 300-500 g) were fixed at the back regions, and the thoracic aortae were then extracted to prepare helical samples, each ca. 2 mm in width and ca. 25 mm in length. Each sample was suspended in a Magnus tube under a load of ca. 1 g and connected at the upper end with an FD pickup by means of silk thread to record its isometric tension change on a recorder.
Prior to initiating the experiment, the sample was allowed to stand for 60 to 90 minutes, during which the Krebs-Henseleit solution was replaced by a new one at an interval of 20 to 30 minutes. […] Finally, papaverine was additionally provided to regulate the final concentration to 2 x 10- ^5g/ml, thereby observing and recording what relaxing reaction took place.
The state stabilized by the addition of KCI or NE was defined as a 100% relaxation rate, on the basis of which what reaction took place at each concentration was relatively estimated.

poikilocytes = experiment: Ex-vivo amelioration of poikilocytes (filtration under pressure of erythrocyte suspension); format: in vivo; conditions: rat
Protocol: (§3) Five minutes after the test compound had been intravenously administered to the tail of a rat, blood was gathered from the descending aorta of the rat which was lightly etherized. Added to this blood was citric acid (3.8% sodium citrate) in a volume ratio of 1/10.
Blood gathered with the addition of citric acid was centrifuged at 4°C and 1500 rpm for 10 minutes. The supernatant fluid was discarded. Added to the residues was physiological saline in an amount of about 1.5 times as large, again followed by 10-minute centrifugation at 4°C and 1500 rpm. The supernatant fluid was discarded. One hundred (100) µl of erythrocytes left upon such procedures repeated twice were diluted with physiological saline to prepare 50 ml of a 0.2 % erythrocyte suspension. This suspension was incubated at 37°C for 5 minutes, cooled down to room temperature and examined to find how much the poikilocytes were ameliorated by the filtration-under-pressure procedures described by F. Katsuraya in "Geriatric Medicine", Vol. 20, pp. 151-156 (1982).
To this end, the suspension sample was passed from a continuous feeder through a Millipore membrane having a mean pore size of […] at a rate of 5 ml/min, during which the pressure on the upstream side of the membrane was measured through a pressure transducer with a pressure amplifier and, at the same time, was recorded on a polygraph chart sheet.

[4] = test system: coronary artery bloodstream; experiment: Coronary bloodstream of dogs under anesthesia (i.v.); format: in vivo; conditions: anesthetized dogs, control 8.7±2.1
Protocol: Fully developed, mongrel male and female dogs were each put under anesthesia with sodium pentobarbital and subjected to commissurotomy while artificial respiration was applied to them. The coronary artery bloodstream was determined with an electromagnetic bloodstream probe attached to the ramus circumflexus of the left coronary artery.
Each of the test compounds was administered to the animal through a cannula fixedly inserted into the cephalic vein.

aldose reductase = aldose reductase (Rattus norvegicus, UniProt P07943); experiment: Action on aldose reductase inhibition (method of Kador et al.); format: biochemical; conditions: 50 % inhibition of aldose reductase
Source text: Chem.", Vol. 8, page 81 (1978) to detrermine how much they inhibited aldose reductase.
Note that IC50 is an index to the 50 % inhibition of aldose reductase.

erythrocytes = experiment: Oxygen dissociation of erythrocytes (HEMOX-ANALYZER), ex vivo; format: in vivo, rat; conditions: 10 mg/kg; control mean 31.08
Source text: as §3
Blood gathered with the addition of heparin was used to determine the oxygen dissociation of the erthro- cytes with HEMOX-ANALYZER.

[5] = Rattus norvegicus, read-out: IC50 Collagen
[6] = 10^-4(M), right atrium, suppression
[7] = 10^-5(M), right atrium, suppression
[8] = 10^-4(M), left atrium, suppression
[9] = 10^-5(M), left atrium, suppression
[10] = 50% relaxation, contraction by KCl 2.5 x 10^-2M, read-out: IC50(M) Contraction by KCl
[11] = 50% relaxation, contraction by norepinephrine 10^-6 g/ml, read-out: IC50(M) Contraction by NE
[12] = rat PRP, aggregation inducer collagen, read-out: IC50 Collagen

Row | SMILES | inhibition at 100 µM (right atrium; [6]) [%] | inhibition at 10 µM (right atrium; [7]) [%] | inhibition at 100 µM (left atrium; [8]) [%] | inhibition at 10 µM (left atrium; [9]) [%] | IC50 [3, 10] [M] | IC50 [3, 11] [M] | IC50 (platelet aggregation [2]; [12]) [µM] | IC50 (aldose reductase) [µM] | other results
1 | CC(=O)Oc1ccccc1C(=O)O [Aspirin, reference compound] |  |  |  |  |  |  |  |  | Collagen (10 μM) (platelet aggregation [1]; 30.0 mg/kg intravenously): 77%; IC50 (platelet aggregation [2]; [5]): 210 µM
2 | CC(C(O)c1ccc(O)cc1)N1CCC(Cc2ccccc2)CC1 (stereo not shown) [B, ifenprodil, reference compound] | > 20 | > 20 | 10 to 20 | 0 |  |  |  |  | 
3 | COc1cc(/C=C/C(=O)N2CCN(CC(=O)N3CCCC3)CC2)cc(OC)c1OC [Cinepazid, reference compound] |  |  |  |  |  |  |  |  | IC50 ([3]; read-out: IC50(M) Contraction by KCl): 0.002 M; IC50 ([3]; read-out: IC50(M) Contraction by NE): 0.001 M
4 | O=C1NC(=O)[C@@]2(C[C@@H](C(=O)N3CCC(Cc4ccccc4)CC3)Oc3ccc(F)cc32)N1 [Compound 1] | 0 | 0 | 10 to 20 | 0 | 1.3e-06 | 1e-05 | 630 | 0.31 | ADP (1 x 10^-6M) (platelet aggregation [1]; 1.0 mg/kg intravenously, inducer ADP 1 x 10^-6M): 44* %; Collagen (10 μM) (platelet aggregation [1]; 1.0 mg/kg intravenously): 57%; Amelioration in % (poikilocytes; 0.1 mg/kg intravenously): 29.3%; C.B.S. (coronary bloodstream) ([4]; 0.1 mg/kg i.v.): 9.6±6.9
5 | O=C1NC(=O)[C@@]2(C[C@@H](C(=O)N3CCN(C(c4ccccc4)c4ccccc4)CC3)Oc3ccc(F)cc32)N1 [Compound 2, 4-diphenylmethyl-1-{(2S,4S)-6-fluoro-2,5'-dioxospiro[chromane-4,4'-imidazolidine]-2-carbonyl}piperazine] | > 20 | 10 to 20 | 10 to 20 | 0 | 0.00012 | 1e-06 | 430 | 0.045 | P50 in mmHg Mean (erythrocytes): 32.58 mmHg; Amelioration in % (poikilocytes; 1.0 mg/kg intravenously): 37.9%; IC50 (platelet aggregation [2]; rat PRP, aggregation inducer ADP, read-out: IC50 ADP): 770 µM; C.B.S. (coronary bloodstream) ([4]; 1.0 mg/kg i.v.): 13.8±2.9
6 | O=C1NC(=O)[C@@]2(C[C@@H](C(=O)N3CCN(CC=Cc4ccccc4)CC3)Oc3ccc(F)cc32)N1 [Compound 3, 4-cinnamyl-1-{(2S,4S)-6-fluoro-2',5'-dioxospiro[chromane-4,4'-imidazolidine]-2-carbonyl}piperazine] | > 20 | 10 to 20 | 10 to 20 | 0 | > 0.001 | > 0.001 | 370 | 0.41 | 
7 | CC(C)NCC(O)COc1cccc2ccccc12 (stereo not shown) [Control A, propranolol, reference compound] |  |  |  |  |  |  |  |  | inhibition at 10 µM (right atrium): > 20%; inhibition at 100 µM (right atrium): > 20%; inhibition at 10 µM (left atrium): > 20%; inhibition at 100 µM (left atrium): > 20%
8 | COc1ccc2c(c1)c(CC(=O)O)c(C)n2C(=O)c1ccc(Cl)cc1 [Indomethacin, reference compound] |  |  |  |  |  |  |  |  | Collagen (10 μM) (platelet aggregation [1]; 30.0 mg/kg intravenously): 49%; IC50 (platelet aggregation [2]; [5]): 68 µM
